# According to US9296759B2, “Amino-oxazine and amino-dihydrothiazine compounds as beta-secretase modulators and methods of use” (AMGEN INC., priority 2011, dated 2016):
# Tests used:
# [1] = system: Aβ40 in conditioned medium of cells stably expressing Amyloid Precursor Protein (APP); test: In vitro BACE cell-based assay (HEK cell assay, Aβ40 sandwich ELISA); settings: average IC50, Aβ40, 24 h incubation
# Experimental: In Vitro BACE Cell-Based Assay
# The cell-based assay measures inhibition or reduction of Aβ40 in conditioned medium of test compound treated cells expressing amyloid precursor protein.
# Cells stably expressing Amyloid Precursor Protein (APP) were plated at a density of 40K cells/well in 96 well plates (Costar). The cells were cultivated for 24 hours at 37° C. and 5% CO2 in DMEM supplemented with 10% FBS. The test compounds were then added to cells in 10-point dose response concentrations with the starting concentration being either 100 μM or 10 μM. The compounds were diluted from stock solutions in DMSO and the final DMSO concentration of the test compounds on cells was 0.1%. After 24 h of incubation with the test compounds the supernatant conditioned media was collected and the Aβ 40 levels were determined using a sandwich ELISA. The IC50 of the compound was calculated from the percent of control or percent inhibition of Aβ 40 as a function of the concentration of the test compound.
# The sandwich ELISA to detect Aβ 40 was performed in 96 well microtiter plates, which were pre-treated with goat anti-rabbit IgG (Pierce). The capture and detecting antibody pair that were used to detect Aβ 40 from cell supernatants were affinity purified pAb40 (Biosource) and biotinylated 6E10 (Signet Labs Inc.), respectively. The optimal concentration for the pAb40 antibody was 3 μg/ml in Superblock/TBS (Pierce) that was supplemented with 0.05% Tween 20 (Sigma).
# Cellular supernatants were incubated with the capture antibody for 3 h at 4° C., followed by 3 wash steps in TBS-tween (0.05%). The detecting antibody incubation was for 2 h at 4° C., again followed by the wash steps as described previously. The final readout of the ELISA is Time-Resolved Fluorescence (counts per minute) using Delfia reagents Streptavidin-Europium and Enhancement solutions (Perkin Elmer) and the Victor 2 multilabel counter (Perkin Elmer).
# [2] = biological target: Cathepsin D (Homo sapiens (Human), UniProt P07339); test: In vitro enzymatic Cat D (Cathepsin D) FRET assay; format: biochemical; settings: average IC50
# Sequence of Cathepsin D (P07339 65-412, species assumed): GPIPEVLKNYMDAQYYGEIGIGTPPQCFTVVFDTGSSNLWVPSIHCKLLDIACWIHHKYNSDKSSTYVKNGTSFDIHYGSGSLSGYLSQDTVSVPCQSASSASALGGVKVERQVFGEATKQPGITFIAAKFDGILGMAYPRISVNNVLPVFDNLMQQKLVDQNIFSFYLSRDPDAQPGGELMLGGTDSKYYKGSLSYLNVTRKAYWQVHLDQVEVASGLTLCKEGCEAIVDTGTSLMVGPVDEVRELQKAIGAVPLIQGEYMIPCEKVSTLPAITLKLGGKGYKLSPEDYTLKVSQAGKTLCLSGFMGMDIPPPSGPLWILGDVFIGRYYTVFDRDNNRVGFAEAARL
# Experimental: In Vitro Enzymatic Cat D (Cathepsin D) FRET (Fluorescence Resonance Energy Transfer) Assay
# Recombinant CathepsinD was expressed in CHO cells. The assay buffer for CathepsinD is 0.05 M citrate pH 3.5, 10% DMSO final, 5 mM CHAPS. […] The assays are effectively started by the addition of different FRET substrates (20 nM for CathepsinD) and the combination is incubated for one hour. The FRET assay is terminated with by addition of Tris buffer, which raises the pH to neutrality, and the fluorescence is determined. The FRET substrate is a peptide with commercially available fluorophore and quencher, on opposite sides of the BACE cleavage site. […] Proteolytic cleavage of the FRET substrate releases quenching of fluorescence (CathepsinD excitation 500 nm and emission 580 nm).
# [3] = biological target: BACE 1 (beta secretase enzyme) (Homo sapiens (Human), UniProt P56817); test: In vitro enzymatic BACE FRET assay; format: biochemical; settings: average IC50
# Sequence of BACE 1 (beta secretase enzyme) (P56817 46-501): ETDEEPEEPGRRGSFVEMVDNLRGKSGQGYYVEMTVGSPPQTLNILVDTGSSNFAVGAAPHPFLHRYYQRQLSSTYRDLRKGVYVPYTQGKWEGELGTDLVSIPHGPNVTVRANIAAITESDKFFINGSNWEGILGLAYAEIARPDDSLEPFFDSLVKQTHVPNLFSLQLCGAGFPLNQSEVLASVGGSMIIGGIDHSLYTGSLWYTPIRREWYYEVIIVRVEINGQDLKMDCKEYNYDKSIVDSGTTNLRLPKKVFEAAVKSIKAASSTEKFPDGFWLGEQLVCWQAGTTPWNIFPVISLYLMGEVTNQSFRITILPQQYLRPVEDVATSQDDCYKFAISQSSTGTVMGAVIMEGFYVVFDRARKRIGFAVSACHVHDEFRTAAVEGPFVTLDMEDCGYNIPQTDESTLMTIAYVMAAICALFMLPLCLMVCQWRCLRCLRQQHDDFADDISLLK
# Experimental: In Vitro Enzymatic BACE FRET (Fluorescence Resonance Energy Transfer) Assay
# The assay buffer used in this screen is 0.05 M acetate, pH 4.2, 10% DMSO final, 100 uM genapol (which is a nonionic detergent, below its Critical Micelle Concentration). […] This assay is effectively started by the addition of FRET substrate (50 nM) and the combination is incubated for one hour. The FRET assay is terminated with by addition of Tris buffer, which raises the pH to neutrality, and the fluorescence is determined. The FRET substrate is a peptide with commercially available fluorophore and quencher, on opposite sides of the BACE cleavage site. Proteolytic cleavage of the FRET substrate releases quenching of fluorescence (excitation […] and […]).
structure (smiles),measurement,setting,value
"COc1cnc(C(=O)Nc2ccc3c(c2)[C@@]2(CCOC(N)=N2)c2cc(Br)cnc2O3)cn1 [Example 44, N-((5S)-2′-amino-3-bromo-5′,6′-dihydrospiro[chromeno[2,3-b]pyridine-5,4′-[1,3]oxazin]-7-yl)-5-methoxy-2-pyrazinecarboxamide]",IC50,"[1]; Homo sapiens, HEK293",11 nM
same,IC50,[2],> 1650 nM
same,IC50,[3],47.6 nM
"NC1=N[C@@]2(CCO1)c1cc(NC(=O)c3ccc(Cl)cn3)ccc1Oc1cnc(-c3ccnc(F)c3)cc12 [Example 94, N-((5S)-2′-amino-3-(2-fluoro-4-pyridinyl)-5′,6′-dihydrospiro[chromeno[2,3-c]pyridine-5,4′-[1,3]oxazin]-7-yl)-5-chloro-2-pyridinecarboxamide]",IC50,"[1]; Homo sapiens, HEK293",0.7 nM
same,IC50,[2],400000 nM
same,IC50,[3],1.6 nM
"N#Cc1ccc(C(=O)Nc2ccc3c(c2)[C@@]2(CCOC(N)=N2)c2cc(-c4ccnc(F)c4)nc(F)c2O3)nc1 [Example 100, N-((5S)-2′-amino-1-fluoro-3-(2-fluoro-4-pyridinyl)-5′,6′-dihydrospiro[chromeno[2,3-c]pyridine-5,4′-[1,3]oxazin]-7-yl)-5-cyano-2-pyridinecarboxamide]",IC50,"[1]; Homo sapiens, HEK293",0.4 nM
same,IC50,[2],518000 nM
same,IC50,[3],0.6 nM
"COc1ccc(C(=O)Nc2ccc3c(c2)[C@@]2(CCSC(N)=N2)c2cc(N4CCOCC4)cc(F)c2O3)nc1 [Example 107, N-((4S)-2-amino-5′-fluoro-7′-(4-morpholinyl)-5,6-dihydrospiro[1,3-thiazine-4,9′-xanthen]-2′-yl)-5-methoxy-2-pyridinecarboxamide]",IC50,"[1]; Homo sapiens, HEK293",8.7 nM
same,IC50,[2],326000 nM
same,IC50,[3],7.8 nM
"COc1cc(F)c2c(c1)[C@]1(CCOC(N)=N1)c1cc(Nc3ncccc3OCc3ccccc3)ccc1O2 [Example 57, (4S)-N~2~′-(3-(benzyloxy)-2-pyridinyl)-5′-fluoro-7′-methoxy-5,6-dihydrospiro[1,3-oxazine-4,9′-xanthene]-2,2′-diamine]",IC50,[1],3510 nM
same,IC50,[2],400000 nM
same,IC50,[3],7290 nM
"CCOc1cccnc1Nc1ccc2c(c1)[C@@]1(CCOC(N)=N1)c1cc(OC)cc(F)c1O2 [Example 31, (4S)-N~2~′-(3-ethoxy-2-pyridinyl)-5′-fluoro-7′-methoxy-5,6-dihydrospiro[1,3-oxazine-4,9′-xanthene]-2,2′-diamine]",IC50,[1],64.2 nM
same,IC50,[2],400000 nM
same,IC50,[3],69.6 nM
"COc1nc(C2=CCOCC2)cc2c1Oc1ccc(NC(=O)c3ccc(Cl)cn3)cc1[C@@]21CCOC(N)=N1 [Example 62, N-((5S)-2′-amino-3-(3,6-dihydro-2H-pyran-4-yl)-1-methoxy-5′,6′-dihydrospiro[chromeno[2,3-c]pyridine-5,4′-[1,3]oxazin]-7-yl)-5-chloro-2-pyridinecarboxamide]",IC50,"[1]; Homo sapiens, HEK293",3.6 nM
same,IC50,[2],400000 nM
same,IC50,[3],7 nM
"COc1cnc(C(=O)Nc2ccc3c(c2)[C@@]2(CCSC(N)=N2)c2cc(-c4ccnc(F)c4)nc(F)c2O3)cn1 [Example 114, N-((5S)-2′-amino-1-fluoro-3-(2-fluoro-4-pyridinyl)-5′,6′-dihydrospiro[chromeno[2,3-c]pyridine-5,4′-[1,3]thiazin]-7-yl)-5-methoxy-2-pyrazinecarboxamide]",IC50,"[1]; Homo sapiens, HEK293",3.8 nM
same,IC50,[2],400000 nM
same,IC50,[3],3.1 nM
"COc1cnc(C(=O)Nc2ccc3c(c2)[C@@]2(CCOC(N)=N2)c2cc(-c4ccnc(F)c4)ncc2O3)cn1 [Example 93, N-((5S)-2′-amino-3-(2-fluoro-4-pyridinyl)-5′,6′-dihydrospiro[chromeno[2,3-c]pyridine-5,4′-[1,3]oxazin]-7-yl)-5-methoxy-2-pyrazinecarboxamide]",IC50,"[1]; Homo sapiens, HEK293",0.5 nM
same,IC50,[2],400000 nM
same,IC50,[3],2.9 nM
"COc1cnc(C(=O)Nc2ccc3c(c2)[C@@]2(CCSC(N)=N2)c2cc(O)cc(F)c2O3)cn1 [Example 109, N-((4S)-2-amino-5′-fluoro-7′-hydroxy-5,6-dihydrospiro[1,3-thiazine-4,9′-xanthen]-2′-yl)-5-methoxy-2-pyrazinecarboxamide]",IC50,"[1]; Homo sapiens, HEK293",64.6 nM
same,IC50,[2],400000 nM
same,IC50,[3],28.4 nM
